Patent US8956999B2, “Herbicides” (Syngenta Limited, priority 2007, dated 2015)

Experiments:
Type in all cases: in vivo
[1] = tested on: Alopecurus myosuroides (ALOMY); assay: Example B pre-emergence herbicidal test, glasshouse; conditions: 312 h, evaluated after 13 days, 100=total damage to plant, 0=no damage to plant; for pest or weed control at 1000 g/ha: rate 1000 g/ha; for pest or weed control at 250 g/ha: rate 250 g/ha
Protocol: (§1) Seeds of a variety of test species were sown in standard soil in pots. After cultivation for one day (pre-emergence) or after 8 days cultivation (post-emergence) under controlled conditions in a glasshouse (at 24/16° C., day/night; 14 hours light; 65% humidity), the plants were sprayed with an aqueous spray solution derived from the formulation of the technical active ingredient in acetone/water (50:50) solution containing 0.5% Tween 20 (polyoxyethelyene sorbitan monolaurate, CAS RN 9005-64-5). The test plants were then grown in a glasshouse under controlled conditions in a glasshouse (at 24/16° C., day/night; 14 hours light; 65% humidity) and watered twice daily. After 13 days for pre and post-emergence, the test was evaluated (100=total damage to plant; 0=no damage to plant). Test Plants: Alopecurus myosuroides (ALOMY), Avena fatua (AVEFA), Setaria faberi (SETFA), Echinochloa crus-galli (ECHCG), Solanum nigrum (SOLNI) and Amaranthus retoflexus (AMARE)

[2] = tested on: Amaranthus retoflexus (AMARE); assay: as above; conditions: Amaranthus retroflexus, 312 h, evaluated after 13 days, 100=total damage to plant, 0=no damage to plant; for pest or weed control at 1000 g/ha: rate 1000 g/ha; for pest or weed control at 250 g/ha: rate 250 g/ha
Protocol: as §1

Avena fatua (AVEFA) [3] = assay: as above; conditions: 312 h, evaluated after 13 days, 100=total damage to plant, 0=no damage to plant; for pest or weed control at 1000 g/ha: rate 1000 g/ha; for pest or weed control at 250 g/ha: rate 250 g/ha
Protocol: as §1

[4] = tested on: Echinochloa crus-galli (ECHCG); assay: as above; conditions: evaluated after 13 days, 100=total damage to plant, 0=no damage to plant; for Pre-Emergence Activity ECHCG: rate 1000 g/ha; for pest or weed control at 250 g/ha: Echinochloa crus-galli, 312 h, rate 250 g/ha, read-out: Pre-Emergence Activity ECHGG
Protocol: as §1

Setaria faberi (SETFA) [5] = assay: as above; conditions: evaluated after 13 days, 100=total damage to plant, 0=no damage to plant; for Pre-Emergence Activity SETFA: rate 1000 g/ha; for pest or weed control at 250 g/ha: Setaria faberi, 312 h, rate 250 g/ha, read-out: Pre-Emergence Activity SEFTA
Protocol: as §1

Solanum nigrum (SOLNI) [6] = assay: as above; conditions: rate 1000 g/ha, evaluated after 13 days, 100=total damage to plant, 0=no damage to plant
Protocol: as §1

[7] = tested on: Alopecurus myosuroides (ALOMY); assay: Example B post-emergence herbicidal test, glasshouse; conditions: 312 h, evaluated after 13 days, read-out: Post-Emergence Activity ALOMY (100=total damage to plant; 0=no damage to plant); for pest or weed control at 1000 g/ha: rate 1000 g/ha; for pest or weed control at 250 g/ha: rate 250 g/ha
Protocol: as §1

[8] = tested on: Amaranthus retoflexus (AMARE); assay: as above; conditions: Amaranthus retroflexus, 312 h, evaluated after 13 days, read-out: Post-Emergence Activity AMARE (100=total damage to plant; 0=no damage to plant); for pest or weed control at 1000 g/ha: rate 1000 g/ha; for pest or weed control at 250 g/ha: rate 250 g/ha
Protocol: as §1

Avena fatua (AVEFA) [9] = assay: as above; conditions: 312 h, evaluated after 13 days, read-out: Post-Emergence Activity AVEFA (100=total damage to plant; 0=no damage to plant); for pest or weed control at 1000 g/ha: rate 1000 g/ha; for pest or weed control at 250 g/ha: rate 250 g/ha
Protocol: as §1

[10] = tested on: Echinochloa crus-galli (ECHCG); assay: as above; conditions: 312 h, evaluated after 13 days; for pest or weed control at 1000 g/ha: rate 1000 g/ha, read-out: Post-Emergence Activity ECHCG (100=total damage to plant; 0=no damage to plant); for pest or weed control at 250 g/ha: rate 250 g/ha, read-out: Post-Emergence Activity ECHGG (100=total damage to plant; 0=no damage to plant)
Protocol: as §1

Setaria faberi (SETFA) [11] = assay: as above; conditions: 312 h, evaluated after 13 days; for pest or weed control at 1000 g/ha: rate 1000 g/ha, read-out: Post-Emergence Activity SETFA (100=total damage to plant; 0=no damage to plant); for pest or weed control at 250 g/ha: rate 250 g/ha, read-out: Post-Emergence Activity SEFTA (100=total damage to plant; 0=no damage to plant)
Protocol: as §1

Solanum nigrum (SOLNI) [12] = assay: as above; conditions: 312 h, rate 1000 g/ha, evaluated after 13 days, read-out: Post-Emergence Activity SOLNI (100=total damage to plant; 0=no damage to plant)
Protocol: as §1

Compound	pest or weed control at 1000 g/ha [1] [%]	pest or weed control at 1000 g/ha [2] [%]	pest or weed control at 1000 g/ha (Avena fatua (AVEFA) [3]) [%]	Pre-Emergence Activity ECHCG [4]	Pre-Emergence Activity SETFA (Setaria faberi (SETFA) [5])	Pre-Emergence Activity SOLNI (Solanum nigrum (SOLNI) [6])	pest or weed control at 1000 g/ha [7] [%]	pest or weed control at 1000 g/ha [8] [%]	pest or weed control at 1000 g/ha (Avena fatua (AVEFA) [9]) [%]	pest or weed control at 1000 g/ha [10] [%]	pest or weed control at 1000 g/ha (Setaria faberi (SETFA) [11]) [%]	pest or weed control at 1000 g/ha (Solanum nigrum (SOLNI) [12]) [%]	pest or weed control at 250 g/ha [1] [%]	pest or weed control at 250 g/ha [2] [%]	pest or weed control at 250 g/ha (Avena fatua (AVEFA) [3]) [%]	pest or weed control at 250 g/ha [4] [%]	pest or weed control at 250 g/ha (Setaria faberi (SETFA) [5]) [%]	pest or weed control at 250 g/ha [7] [%]	pest or weed control at 250 g/ha [8] [%]	pest or weed control at 250 g/ha (Avena fatua (AVEFA) [9]) [%]	other results
Cc1sc(-c2ccc(F)cc2)nc1C1C(=O)C(C)(C)C(=O)C(C)(C)C1=O [Compound T8]	30	0	20	0	0	0	40	0	0	70	80	20									
Cc1sc(-c2cc(Cl)ccc2Cl)nc1C1C(=O)C(C)(C)C(=O)C(C)(C)C1=O [Compound T10, 6-[2-(2,5-dichlorophenyl)-5-methylthiazol-4-yl]-2,2,4,4-tetramethyl-cyclohexane-1,3,5-trione]	30	0	20	0	0	0	40	0	0	70	80	20									
Cc1sc(-c2ccc(Cl)cc2)nc1C1C(=O)C(C)(C)C(=O)C(C)(C)C1=O [Compound T1]							90	0	80	90	90	0									
Cc1sc(OCc2cnc(Br)s2)nc1C1C(=O)C(C)(C)OC(C)(C)C1=O [Compound T14]	40	0	0	0	0	0							0	0	0	0	50	40	0	0	pest or weed control at 250 g/ha [10]: 70%; pest or weed control at 250 g/ha (Setaria faberi (SETFA) [11]): 90%
Cc1sc(-c2ccc(Cl)c(C(F)(F)F)c2)nc1C1C(=O)C(C)(C)OC(C)(C)C1=O [Compound T15]							40	0	0	70	0	0									
CCc1sc(-c2ccc(SC)cc2)nc1C1C(=O)C(C)(C)OC(C)(C)C1=O [Compound T69]													0	0	0	20	20	60	0	40	pest or weed control at 250 g/ha [10]: 100%; pest or weed control at 250 g/ha (Setaria faberi (SETFA) [11]): 90%
CCc1sc(-c2ccc(Cl)cc2)nc1C1=C(OC(=O)C(C)(C)C)C(C)(C)OC(C)(C)C1=O [Compound P2, 2,2-dimethylpropionic acid 4-[2-(4-chlorophenyl)-5-ethylthiazol-4-yl]-2,2,6,6-tetramethyl-5-oxo-5,6-dihydro-2H-pyran-3-yl ester]	60	80	30	50	80	0	90	0	90	100	100	0									
COC(=O)c1ccc(-c2cc(C3C(=O)C(C)(C)OC(C)(C)C3=O)c(C)s2)cc1 [Compound T20]	30	80	0	0	0	70	0	0	0	0	10	0									
Cc1ocnc1C1C(=O)C(C)(C)C(=O)C(C)(C)C1=O [Compound T2]	0	50	0	0	0	60	0	0	0	0	0	40									
Cc1sc(-c2ccc(Br)cn2)nc1C1=C(OC(=O)C(C)(C)C)C(C)(C)OC(C)(C)C1=O [Compound P5]													0	0	0	0	0	0	0	0	pest or weed control at 250 g/ha [10]: 0%; pest or weed control at 250 g/ha (Setaria faberi (SETFA) [11]): 0%
Cc1cc(-c2nc(C3C(=O)C(C)(C)C(=O)C(C)(C)C3=O)c(C)s2)ccc1Cl [Compound T42]													0	40	0	40	0	0	0	0	pest or weed control at 250 g/ha [10]: 20%; pest or weed control at 250 g/ha (Setaria faberi (SETFA) [11]): 0%
CCc1sc(-c2ccc(Cl)cc2)nc1C1C(=O)C2CCC(C)(O2)C1=O (centres unmarked) [Compound T50, 3-[2-(4-chloro-phenyl)-5-ethyl-thiazol-4-yl]-1-methyl-8-oxa-bicyclo[3.2.1]-octane-2,4-dione]													90	0	90	100	100	100	0	100	pest or weed control at 250 g/ha [10]: 100%; pest or weed control at 250 g/ha (Setaria faberi (SETFA) [11]): 100%
